Assay results taken from patent US20050282755A1, “Compositions having antimicrobial activity and uses thereof” (priority 2004, published 2005).
Converted amounts (≈) assume the structure as drawn. Like-named read-outs stand apart in the source and are kept apart here. Non-standard residues stand in square brackets, D forms with d. Residues, ends and D or L forms follow the SMILES beside them. *: point of attachment. Lauroyl = CCCCCCCCCCCC(=O)*; dOrn = NCCC[C@@H](N)C(=O)O

Legend:
[1] = test system: Staphylococcus aureus ATCC 29213; test: MIC, NCCLS M7-A6 broth microdilution, cation-adjusted Mueller Hinton broth (Table 9, no superscript); format: cell-based; settings: ATCC 29213
Method in brief: (§1)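 Values come from a broth microdilution assay run in cation-adjusted Mueller Hinton broth with an inoculum of 5×10^5 to 1×10^6 CFU/milliliter, incubated overnight at 37° C and read as absence of visible turbidity.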

P. acnes = test: Mouse skin assay, bactericidal activity on excised Balb/c skin; format: cell-based, Propionibacterium acnes; settings: Incubation time 120 min; P. acnes untreated 0.9 × 10^8 cfu/ml
[2] = test system: Propionibacterium acnes ATCC 6919; format: cell-based
Method in brief: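 MIC by non-standard broth microdilution in reinforced Clostridial broth, log-phase P. acnes inoculum at 5×10^5 to 1×10^6 CFU/mL. Plates were held anaerobically 48–72 h at 37° C; MIC was the lowest peptide concentration with no visible turbidity relative to the no-peptide control.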

Salmonella dublin (Lane) = test: MIC, NCCLS M7-A6 broth microdilution (Table 9, no superscript); format: cell-based
Method in brief: as §1

[3] = test system: Propionibacterium acnes ATCC 6919; test: MIC, agar dilution method NCCLS M11-A6, Brucella agar, anaerobic (Table 9, superscript c); format: cell-based; settings: letter c: agar dilution NCCLS M11-A6, Brucella agar, anaerobic
Method in brief: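 Agar dilution per NCCLS M11-A6 on Brucella agar; final inoculum 1.5×10^8 CFU/milliliter applied to plates, incubated 48-96 hours at 37° C. under anaerobic (GasPak) conditions. MIC = lowest peptide concentration with no colony growth.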

S. dublin (Lane) = test: Broth microdilution assay for MIC, Table 4A; format: cell-based, Salmonella dublin; settings: 3 log or greater reduction in bacterial growth over 16 hours
Procedure: (§2) S. dublin (Lane), S. aureus (Rosenbach), P. acnes, ATCC 6919, E. coli K12 TOP10, and E. coli K12 55099 (protease neg.) bacterial strains were tested in the microbial inhibition assays described hereafter. The S. dublin (Lane), and S. aureus (Rosenbach) strains are available from ATCC (Staphylococcus aureus subsp. aureus Rosenbach (Number: 13150) and Salmonella choleraesuis serotype dublin (Number: 39184)). The strain of P. acnes was purchased from ATCC (strain #6919) (Manassas, Va.). The E. coli K12 strains TOP 10 and 55099 were purchased from Invitrogen (Carlsbad, Calif.) and ATCC respectively. HeLa cells were purchased from ATCC (CCL2). Tryptic soy broth (TSB), Brucella broth, reinforced Clostridial broth and agar were purchased from Becton & Dickinson (distributed by VWR, West Chester, Pa.). All plastic consumables were purchased from VWR (West Chester, Pa.). […]
(§3) The minimum inhibitory concentration (MIC) of peptide compositions for S. aureus, S. dublin and E. coli was determined in a broth microdilution assay. […] The MIC for each peptide for each microorganism was determined by three methods. The growth of bacteria was directly determined by measuring the absorption at 600 nm using a Versamax microplate reader (Molecular Devices). […] After incubation for 16 hours at 37° C. bacterial growth was evaluated and documented (Alpha Innotech gel documentation system).

E. coli K12 TOP10 = settings: 3 log or greater reduction in bacterial growth over 16 hours
[4] = test system: E. coli K12 55099 (protease neg.); settings: 3 log or greater reduction in bacterial growth over 16 hours
S. aureus (Rosenbach) = test: Broth microdilution assay for MIC (20% TSB, 50 mM Na2CO3, 1 mM MgCl2), Table 4A; format: cell-based, Staphylococcus aureus; settings: 3 log or greater reduction in bacterial growth over 16 hours
Procedure: as §2, §3

human red blood cells = format: cell-based; settings: red cells of human
Procedure: Hemoglobin-release assays with human red blood cells (RBC) were performed to determine the hemolytic activity of granulysin peptides. Human RBCs (San Diego Blood Bank, San Diego, Calif.) were washed three times in PBS buffer (8 mM Na2HPO4, 1.5 mM KH2PO4, 140 mM NaCl and 2.7 mM KCl, pH 7.4), resuspended in PBS to the concentration of 5% (v/v). The RBC were then exposed to different peptide compositions at various concentrations (100-6.25 micromolar) and incubated at 37° C. for 60 minutes in a total volume of 120 microliters. Every experiment included a negative control without peptide and maximum control treated with 5% TX-100 for complete hemoglobin release. Samples were centrifuged for 1 minute at 13,000 g to remove debris and intact cells. The hemoglobin-containing supernatant was removed and transferred to a microwell plate. Hemoglobin release was quantified at A540 using a Versamax plate reader (Molecular Devices). The degree of hemolysis is expressed as percentage of hemolysis compared to the […], using the following formula: % hemolysis=(sample−neg. control)/(max. control−neg. control)×100.

[5] = test system: Escherichia coli ATCC 25922; test: MIC, NCCLS M7-A6 broth microdilution (Table 9, no superscript); format: cell-based; settings: ATCC 25922
Method in brief: as §1

[6] = test system: Pseudomonas aeruginosa ATCC 27853; test: as above; format: cell-based; settings: ATCC 27853
Method in brief: as §1

[7] = test system: Staphylococcus epidermidis ATCC 12228; test: as above; format: cell-based; settings: ATCC 12228
Method in brief: as §1

[8] = test system: Candida albicans ATCC 18804; test: MIC in yeasts, NCCLS M27-A2 broth microdilution, RPMI 1640 (Table 9, letter e); format: cell-based; settings: ATCC 18804
Method in brief: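 Broth microdilution per NCCLS M27-A2 in RPMI 1640 with glutamine and phenol red, final inoculum 0.5×10^3–2.5×10^3 CFU/milliliter. Incubated 24 to 48 hours at 37° C; MIC is the lowest peptide concentration with no visible growth.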

[9] = test system: Staphylococcus epidermidis ATCC 12228; settings: ATCC 12228, pH 7.4
[10] = test system: Pseudomonas aeruginosa ATCC 27853; settings: ATCC 27853, pH 7.4

Row | SMILES | MIC S. aureus [1] | P. acnes recovered from mouse skin (P. acnes) | MIC P. acnes [2] | MIC S. dublin (Salmonella dublin (Lane)) | MIC P. acnes [3] | Minimum inhibitory concentration (MIC) S. dublin (S. dublin (Lane)) | Minimum inhibitory concentration (MIC) E. coli Top10 (E. coli K12 TOP10) | Minimum inhibitory concentration (MIC) E. coli 55099 [4] | Minimum inhibitory concentration (MIC) S. aureus (S. aureus (Rosenbach)) | Hemolytic effect on human red blood cells (human red blood cells; 6.25 Micromolar) | Hemolytic effect on human red blood cells (human red blood cells; 12.5 Micromolar) | Hemolytic effect on human red blood cells (human red blood cells; 25 Micromolar) | Hemolytic effect on human red blood cells (human red blood cells; 50 Micromolar) | Hemolytic effect on human red blood cells (human red blood cells; 100 Micromolar) | MIC E. coli [5] | MIC P. aeruginosa [6] | MIC S. epidermidis [7] | MIC C. albicans [8] | MIC S. epidermidis [9] | MIC P. aeruginosa [10]
1 | CSCC[C@@H](NC(=O)[C@@H](Cc1ccccc1)NC(=O)[C@@H](CC(N)=O)NC(=O)[C@@H](CCCNC(=N)N)NC(=O)[C@@H](CO)NC(=O)[C@@H](Cc1c[nH]c2ccccc12)NC(=O)[C@@H](CC(=O)O)NC(=O)[C@@H](CCCNC(=N)N)NC(=O)[C@@H](Cc1c[nH]c2ccccc12)NC(=O)[C@@H](CCCNC(=N)N)NC(=O)[C@@H](CO)NC(=O)[C@@H](CCCNC(=N)N)NC(=O)CNC(=O)[C@H](NC(=O)[C@@H](CCCNC(=N)N)NC(=O)[C@@H](CO)NC(=O)[C@H](NC(=O)[C@@H](CCCNC(=N)N)NC(=O)[C@H](NC(C)=O)[C@H](C)O)C(C)C)[C@H](C)O)C(=O)N[C@H](CCCNC(=N)N)C(=O)N[C@H](CCCN)C(=O)N[C@H](CCCN)C(=O)N[C@H](CCCN)C(=O)N[C@H](CCCN)C(=O)N[C@H](CCCN)C(=O)N[C@H](CCCN)C(=O)N[C@H](CCCN)C(=O)N[C@H](CCCN)C(N)=O [Peptide 35, Ac-trvsrtgrsrwrdwsrnfmroooooooo-NH2] (Ac-[dT][dR][dV][dS][dR][dT]G[dR][dS][dR][dW][dR][dD][dW][dS][dR][dN][dF][dM][dR][dOrn][dOrn][dOrn][dOrn][dOrn][dOrn][dOrn][dOrn]-NH2) | >64 µg/mL | 4.5 × 10^4 cfu/ml | 6 µg·days/mL | >64 µg/mL |  |  |  |  |  |  |  |  |  |  |  |  |  |  |  | 
2 | CCCCCCCCCCCC(=O)N[C@H](C(=O)N[C@@H](CCCNC(=N)N)C(=O)N[C@H](C(=O)N[C@@H](CO)C(=O)N[C@@H](CCCNC(=N)N)C(=O)N[C@H](C(=O)NCC(=O)N[C@@H](CCCNC(=N)N)C(=O)N[C@@H](CO)C(=O)N[C@@H](CCCNC(=N)N)C(=O)N[C@@H](Cc1c[nH]c2ccccc12)C(=O)N[C@@H](CCCNC(=N)N)C(=O)N[C@@H](CC(=O)O)C(=O)N[C@@H](Cc1c[nH]c2ccccc12)C(=O)N[C@@H](CO)C(=O)N[C@@H](CCCNC(=N)N)C(=O)N[C@@H](CC(N)=O)C(=O)N[C@@H](Cc1ccccc1)C(=O)N[C@@H](CCSC)C(=O)N[C@@H](CCCNC(=N)N)C(=O)N[C@@H](CCCCN)C(N)=O)[C@@H](C)O)C(C)C)[C@@H](C)O [Peptide 64] (Lauroyl-TRVSRTGRSRWRDWSRNFMRK-NH2) | 8 µg/mL (≈ 2.74 µM) |  |  | 16 µg/mL (≈ 5.48 µM) | >64c ug/mL | 8 µM (≈ 23.4 µg/mL) | 2 µM (≈ 5.84 µg/mL) | 1 µM (≈ 2.92 µg/mL) | 2 µM (≈ 5.84 µg/mL) | 14% | 15% | 29% | 46% | 81% | 64 µg/mL (≈ 21.9 µM) | >64 µg/mL | 1 µg/mL (≈ 0.342 µM) | 32e ug/mL |  | 
3 | CSCC[C@@H](NC(=O)[C@@H](Cc1ccccc1)NC(=O)[C@@H](CC(N)=O)NC(=O)[C@@H](CCCNC(=N)N)NC(=O)[C@@H](C)NC(=O)[C@H](NC(=O)[C@@H](CC(=O)O)NC(=O)[C@@H](CCCNC(=N)N)NC(=O)[C@@H](Cc1c[nH]c2ccccc12)NC(=O)[C@@H](CCCNC(=N)N)NC(=O)[C@@H](CO)NC(=O)[C@@H](CCCNC(=N)N)NC(C)=O)C(C)C)C(=O)N[C@H](CCCNC(=N)N)C(N)=O [Peptide 96, Ac-rsrwrdvarnfmr-NH2] (Ac-[dR][dS][dR][dW][dR][dD][dV][dA][dR][dN][dF][dM][dR]-NH2) | >64 µg/mL |  | 12.5 µg·days/mL | >64 µg/mL |  |  |  |  |  |  |  |  |  |  |  |  |  | 8e ug/mL | 12.5b ug/mL | 50b ug/mL
